Reference: ChEMBL document CHEMBL1128863, “6-Imino-1,3-oxazines: a new class of hepatoprotectants” (Bioorg Med Chem Lett, 1995)

Columns and labels:
Rattus norvegicus [1] = assay: Hepatoprotective activity against bilirubin for thioacetamide-induced toxicity in rats at 6 mg/kg dose for 7 days by ip administration; assay type: functional
[2] = Hepatoprotective activity against glutamate oxaloacetate transaminase (GOT) for thioacetamide-induced toxicity in rats at 6 mg/kg dose for 7 days by ip administration; assay type: functional
[3] = target: T1, Alanine aminotransferase 1 (Rattus norvegicus) (UniProt P25409); assay: (§1) Hepatoprotective activity against glutamate pyruvate transaminase (GTP) for thioacetamide-induced toxicity in rats at 6 mg/kg dose for 7 days by ip administration; assay type: functional, organism-based; design: dose 6 mg/kg
T1 sequence (whole entry): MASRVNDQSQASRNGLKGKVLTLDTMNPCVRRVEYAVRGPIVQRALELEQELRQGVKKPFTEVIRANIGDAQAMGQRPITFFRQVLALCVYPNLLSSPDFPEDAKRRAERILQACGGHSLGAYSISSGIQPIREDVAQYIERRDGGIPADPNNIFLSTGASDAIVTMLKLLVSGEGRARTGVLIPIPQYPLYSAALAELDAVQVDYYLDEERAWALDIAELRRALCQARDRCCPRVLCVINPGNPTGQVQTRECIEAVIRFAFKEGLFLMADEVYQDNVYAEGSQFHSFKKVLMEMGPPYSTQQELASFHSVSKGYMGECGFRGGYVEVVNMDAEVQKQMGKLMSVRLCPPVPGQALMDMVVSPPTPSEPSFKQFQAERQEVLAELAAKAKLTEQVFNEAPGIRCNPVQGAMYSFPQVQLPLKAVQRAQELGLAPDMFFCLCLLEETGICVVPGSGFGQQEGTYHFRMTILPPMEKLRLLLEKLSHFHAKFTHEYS

[4] = target: T2, Alkaline phosphatase, tissue-nonspecific isozyme (Rattus norvegicus) (UniProt P08289); assay: (§2) Hepatoprotective activity against alkaline phosphatase (ALP) for thioacetamide-induced toxicity in rats at 6 mg/kg dose for 7 days by ip administration; assay type: functional, organism-based; design: dose 6 mg/kg
T2 sequence (whole entry): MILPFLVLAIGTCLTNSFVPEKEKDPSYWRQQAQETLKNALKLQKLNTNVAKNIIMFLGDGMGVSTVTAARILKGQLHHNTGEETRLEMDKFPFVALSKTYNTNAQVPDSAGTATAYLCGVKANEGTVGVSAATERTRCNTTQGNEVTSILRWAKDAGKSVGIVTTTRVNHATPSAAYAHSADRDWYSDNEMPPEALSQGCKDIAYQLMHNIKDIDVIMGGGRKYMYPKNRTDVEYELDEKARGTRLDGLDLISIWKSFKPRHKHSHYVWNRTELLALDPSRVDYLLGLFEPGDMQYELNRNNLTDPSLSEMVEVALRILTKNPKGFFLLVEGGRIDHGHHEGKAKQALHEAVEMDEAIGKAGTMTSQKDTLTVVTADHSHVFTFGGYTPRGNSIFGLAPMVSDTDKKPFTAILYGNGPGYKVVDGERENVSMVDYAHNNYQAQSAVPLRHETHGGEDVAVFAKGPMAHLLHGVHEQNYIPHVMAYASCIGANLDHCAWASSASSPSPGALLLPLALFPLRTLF

[5] = target: Alanine aminotransferase 1 (Rattus norvegicus) (UniProt P25409); assay: as §1; assay type: functional, organism-based; design: dose 6 mg/kg; remark: listed apart in the source
[6] = target: Alkaline phosphatase, tissue-nonspecific isozyme (Rattus norvegicus) (UniProt P08289); assay: as §2; assay type: functional, organism-based; design: dose 6 mg/kg; remark: listed apart in the source
Rattus norvegicus [7] = assay: Effective dose administered perorally in rats in various models of liver injuries; assay type: functional
[8] = Lethal dose administered perorally in rats in various models of liver injuries; assay type: toxicity; settings: rat, in vivo, po

| Compound | Protection (Rattus norvegicus [1]; route intraperitoneal) | Protection ([2]; route intraperitoneal) | Protection [3] | Protection [4] | Protection (Rattus norvegicus [1]) | Protection [2] | Protection [5] | Protection [6] | ED (Rattus norvegicus [7]) | LD50 [8] |
| --- | --- | --- | --- | --- | --- | --- | --- | --- | --- | --- |
| CCOC(=O)c1c(SC)nc(C(F)(F)F)oc1=N | 14% | 66% | 54% | 28% | – | – | – | – | – | – |
| SILYMARIN | – | – | – | – | 61% | 50.1% | 47.2% | 47% | – | – |
| N#Cc1c(N)oc(-c2ccccc2)n/c1=N\N | 0% | 17% | 19% | 12% | – | – | – | – | – | – |
| CCOC(=O)c1c(SC)nc(-c2ccccc2)oc1=N | 33% | 33% | 39% | 41% | – | – | – | – | – | – |
| CSc1nc(-c2ccccc2)oc(=N)c1C#N | 19% | 26% | 19% | 30% | – | – | – | – | – | – |
| COc1ccn(C)c(=O)c1C#N [RICININE] | – | – | – | – | – | – | – | – | 6 mg/kg | 80 mg/kg |
| CCOC(=O)c1c(SC)nc(C)oc1=N | 11% | 26% | 29% | 36% | – | – | – | – | – | – |
